Laboratory results: US6492559B1, “Alkylated aminoether surfactants” (Air Products and Chemicals, Inc., priority 1998, dated 2002)

Legend:
Format in all cases: physicochemical
[1] = Dynamic surface tension of aqueous solutions, maximum bubble pressure method
Text: where n is 2-6, preferably 2-4; m is 0-4, preferably 0-2; and p and q are 2-6, preferably 2 or 3; and R and R′ independently are an alkyl group comprising 5 to 18 carbons, preferably 5 to 8 carbons which is branched or in which the point of attachment to nitrogen is on a nonterminal carbon, for the reduction of equilibrium and dynamic surface tension in water-based compositions containing an organic compound, particularly coating, ink, and agricultural compositions containing organic compounds such as polymeric resins, herbicides, pesticides or plant growth modifying agents. […] The maximum-bubble-pressure method of measuring surface tension is described in Langmuir 1986, 2, 428-432, which is incorporated by reference.
Dynamic surface tension data were obtained for aqueous solutions of the reductive alkylation product of the dialkylated aminoethylether of Example 1 using the maximum bubble pressure method at bubble rates from 0.1 bubbles/second (b/s) to 20 b/s. […] In practical terms, high bubble rates correspond to high printing speeds in lithographic printing, high spray or roller velocities in coating applications, and rapid application rates for agricultural products.

[2] = Foam test based upon ASTM D 1173-53; settings: 0.1 wt % solution
Experimental: The foaming properties of 0.1 wt % solutions of the reductive alkylation products of the products of this invention were examined using a procedure based upon ASTM D 1173-53. In this test, a 0.1 wt % solution of the surfactant is added from an elevated foam pipette to a foam receiver containing the same solution. The foam height is measured at the completion of the addition (“Initial Foam Height”) and the time required for the foam to dissipate is recorded (“Time to 0 Foam”). This test provides a comparison between the foaming characteristics of various surfactant solutions. In general, in coatings, inks, and agricultural formulations, foam is undesirable because is complicates handling and can lead to coating and print defects, and to inefficient application of agricultural materials.

Solubility in water = assay: Solubility in water

Structure (SMILES) | Dynamic Surface Tension ([1]; 0.1 wt % in water, 0.1 b/s) | Dynamic Surface Tension ([1]; 0.1 wt % in water, 1 b/s) | Dynamic Surface Tension ([1]; 0.1 wt % in water, 6 b/s) | Dynamic Surface Tension ([1]; 0.1 wt % in water, 15 b/s) | Dynamic Surface Tension ([1]; 0.1 wt % in water, 20 b/s) | Dynamic Surface Tension ([1]; 0.15 wt % in water, 0.1 b/s) | Dynamic Surface Tension ([1]; 0.15 wt % in water, 1 b/s) | Dynamic Surface Tension ([1]; 0.15 wt % in water, 6 b/s) | Dynamic Surface Tension ([1]; 0.15 wt % in water, 15 b/s) | Dynamic Surface Tension ([1]; 0.15 wt % in water, 20 b/s) | Initial Foam Height [2] | Time to 0 Foam [2] | Dynamic Surface Tension ([1]; 0.2 wt % in water, 0.1 b/s) | Dynamic Surface Tension ([1]; 0.2 wt % in water, 1 b/s) | Dynamic Surface Tension ([1]; 0.2 wt % in water, 6 b/s) | Dynamic Surface Tension ([1]; 0.2 wt % in water, 15 b/s) | Dynamic Surface Tension ([1]; 0.2 wt % in water, 20 b/s) | Dynamic Surface Tension ([1]; 0.5 wt % in water, 0.1 b/s) | Dynamic Surface Tension ([1]; 0.5 wt % in water, 1 b/s) | Dynamic Surface Tension ([1]; 0.5 wt % in water, 6 b/s) | also measured
CC(C)CC(C)NCCCOCCCNC(C)CC(C)C (stereo not shown) [APE/MIBK2] | 30.8 dyne/cm | 31.3 dyne/cm | 32.6 dyne/cm | 34.4 dyne/cm | 34.9 dyne/cm | 29.3 dyne/cm | 29.9 dyne/cm | 30.1 dyne/cm | 32.9 dyne/cm | 33.3 dyne/cm | 1.0 cm | 2 s | – | – | – | – | – | – | – | – | –
CC(C)CC(C)NCCOCCNC(C)CC(C)C (stereo not shown) [AEE/MIBK2] | 30.3 dyne/cm | 30.8 dyne/cm | 31.8 dyne/cm | 33.4 dyne/cm | 34.1 dyne/cm | 27.6 dyne/cm | 27.9 dyne/cm | 28.7 dyne/cm | 30.1 dyne/cm | 30.6 dyne/cm | – | – | 26.7 dyne/cm | 26.9 dyne/cm | 27.4 dyne/cm | 28.8 dyne/cm | 29.3 dyne/cm | – | – | – | Dynamic Surface Tension ([1]; 0.03 wt % in water, 0.1 b/s): 37.9 dyne/cm; Dynamic Surface Tension ([1]; 0.03 wt % in water, 1 b/s): 39.0 dyne/cm; Dynamic Surface Tension ([1]; 0.03 wt % in water, 6 b/s): 42.8 dyne/cm; Dynamic Surface Tension ([1]; 0.03 wt % in water, 15 b/s): 47.9 dyne/cm; Dynamic Surface Tension ([1]; 0.03 wt % in water, 20 b/s): 48.2 dyne/cm; Dynamic Surface Tension ([1]; 0.05 wt % in water, 0.1 b/s): 34.7 dyne/cm; Dynamic Surface Tension ([1]; 0.05 wt % in water, 1 b/s): 35.4 dyne/cm; Dynamic Surface Tension ([1]; 0.05 wt % in water, 6 b/s): 37.6 dyne/cm; Dynamic Surface Tension ([1]; 0.05 wt % in water, 15 b/s): 40.9 dyne/cm; Dynamic Surface Tension ([1]; 0.05 wt % in water, 20 b/s): 41.9 dyne/cm; Dynamic Surface Tension ([1]; 0.07 wt % in water, 0.1 b/s): 32.4 dyne/cm; Dynamic Surface Tension ([1]; 0.07 wt % in water, 1 b/s): 33.0 dyne/cm; Dynamic Surface Tension ([1]; 0.07 wt % in water, 6 b/s): 34.5 dyne/cm; Dynamic Surface Tension ([1]; 0.07 wt % in water, 15 b/s): 36.8 dyne/cm; Dynamic Surface Tension ([1]; 0.07 wt % in water, 20 b/s): 37.7 dyne/cm; solubility limit (Solubility in water): about 0.2 wt %
CC(C)CC(C)NCCCOCCOCCOCCCNC(C)CC(C)C (stereo not shown) [BAPEE/MIBK2] | 39.2 dyne/cm | 39.7 dyne/cm | 40.8 dyne/cm | 42.0 dyne/cm | 42.2 dyne/cm | – | – | – | – | – | 3.1 cm | 5 s | – | – | – | – | – | 30.6 dyne/cm | 30.7 dyne/cm | 31.0 dyne/cm | Dynamic Surface Tension ([1]; 0.5 wt % in water, 15 b/s): 31.8 dyne/cm; Dynamic Surface Tension ([1]; 0.5 wt % in water, 20 b/s): 32.2 dyne/cm
CC(C)CC(C)NCCCOCCOCCCNC(C)CC(C)C (stereo not shown) [BAPE/MIBK2] | 35.5 dyne/cm | 36.0 dyne/cm | 37.2 dyne/cm | 38.7 dyne/cm | 39.2 dyne/cm | – | – | – | – | – | 2.6 cm | 8 s | 31.6 dyne/cm | 32.0 dyne/cm | 32.9 dyne/cm | 33.8 dyne/cm | 34.1 dyne/cm | 29.7 dyne/cm | 29.8 dyne/cm | 30.1 dyne/cm | Dynamic Surface Tension ([1]; 0.5 wt % in water, 15 b/s): 30.8 dyne/cm; Dynamic Surface Tension ([1]; 0.5 wt % in water, 20 b/s): 31.0 dyne/cm; solubility (in words) (Solubility in water): relatively high solubility
